Laboratory results: PMC7822819, “Discovery of a new class of integrin antibodies for fibrosis” (Scientific Reports, 2021)
pIC50: −log10 of the molar value. Values joined by “and” are separate entries in the source; they are usually repeats but may differ in a detail not shown here. Identical values can stand only once. Like-named read-outs stand apart in the source and are kept apart here.

What was measured:
[1] = Plasma total drug concentration in bleomycin model (LC-MS/MS); assay type: in vivo, mouse; details: 2 h after last dose, Day 19; MK-0429 200 mpk minipump, Nintedanib 60 mpk po qd; mean ± SE
Experimental: Mice at 12 ~ 13 weeks of age were randomized to 5 groups: saline, bleomycin instillation with vehicle (osmotic minipump), bleomycin instillation with MK-0429 treatment, bleomycin instillation with vehicle oral treatment, and bleomycin instillation with Nintedanib treatment. All mice were anaesthetized with isoflurane. Bleomycin was dosed by intra-tracheal (i.t) instillation in a volume of 50 µl, at a dose of 1unit /kg body weight. After instillation, mice were kept in a heads-up position for 2–5 min before putting into cages. MK-0429 (200 mg/kg) was administered by Osmotic pump from day 5 to day 14 and Nintedanib (60 mg/kg) was administered, p.o., q.d., for 14 days. Vehicle was dosed orally at 10 am daily from the day 5 to the end of the studies and dosing volume was 10 mL/kg. For plasma PK analysis, an aliquot of 50 μL plasma was spiked into a 96-well plate, and 200 μL of acetonitrile containing internal standard were added for protein precipitation. The mixture was vortexed, centrifuged at 4000 rpm for 20 min. 50 μL of supernatant were mixed with 200 μl H2O and the final solution were injected for LC–MS/MS analysis. The methods for quantitative analysis were developed on UPLC (Waters) chromatographic system equipped with an API4000 QTrap mass spectrometer (Applied Biosystems, Concord, Ontario, Canada). […]

mouse αvβ6 = molecular target: T1, mouse αvβ6 (Mus musculus, UniProt P43406+Q9Z0T9); experiment: Latent TGFβ activation assay (TMLC / CHOK1-integrin co-culture, PAI-1 luciferase); assay type: cell-based; details: in words
T1 construct: expressed in transfected cells
Experimental: Transfected mink lung epithelial cell (TMLC) cell line containing the TGFβ responsive PAI-1 promoter driving luciferase expression[29] and the CHO-K1 human and mouse αvβx integrin cell lines were grown under optimized growth conditions to 90% confluency. TMLC cells were trypsinized and plated at 25,000 cells/well in 50 μL in Costar clear bottom white walled plates. In a separate plate, 25 μL of serially diluted antibodies at 4X concentration were added to wells containing 25 μL of either 25,000 cells of human or mouse αvβx cells. After a brief mixing, the 50 μL mixture was transferred to the TMLC cell plates for a total volume of 100 μL and incubated at 37 °C for 16 h. 100 μL of ONE-Glo kit (#PRE6120) was added to each well and read after 3–5 min on the Envision plate reader.

[2] = parameters: method as in PMID 15687321; details: humans; cited from earlier work
human αvβ1 = human αvβ1 (Homo sapiens, UniProt P05556+P06756); experiment: AlphaLISA integrin-ligand binding assay; assay type: biochemical; parameters: hαV 1 992; hβ1 1 728; made in house; host or cells: Expi293
Experimental: (§1) In the AlphaLISA integrin assays, we used a HEPES based buffer (25 mM HEPES pH 7.4, 137 mM NaCl, 1 mM MgCl2, 1 mM MnCl2, 2 mM CaCl2, 2.7 mM KCl, and 0.05% Tween-20). Optimal assay conditions were determined with a titration of the reagents for signal noise ratio (S/N), linear range, etc. For the respective integrins, we used the final concentrations described in Supplemental Table S3. Briefly, the testing antibody (8 μL) was added as a 4x (of Final testing concentration) solution in the HEPES buffer described previously into a 384w AlphaPlate (Perkin Elmer #6005350). Then the integrin and ligand were added sequentially as 8x (4 μL each). Plates were sealed and incubated at room temperature for 2 h. Then 4 × acceptor bead solution (8 μL) was added, and the plates were resealed and incubated at RT for 1 h. Finally, 4 × (8 μL) donor beads solution was added in a darkened room and incubated for 45 min at room temperature. Plates were read on the Envision (Perkin Elmer) in AlphaScreen mode within 3 h of donor bead addition.
(§2) Supplemental Table S3. integrin AlphaLIS A assay reagents and conditions Human A l phal i sa Inte gri n A ssays: Fi nal Condi ti ons […]
(§3) ( batch de pe nde nt) anti body A l phaLi sa A cce ptor havb1 1. 4 nM 1. 0 nMα - Fi brone cti n human Fi brone cti n n/a A cce ptor be ads/ Pe rki n 10. 0 ug/ m 10. 0 ug/ m […]
(§4) havb3 3. 0 nM 10. […]

human αvβ8 = human αvβ8 (Homo sapiens, UniProt P06756+P26012); experiment: AlphaLISA integrin-ligand binding assay; assay type: biochemical; parameters: hαV 1 992; hβ8 1 684; made in house; host or cells: Expi293
Experimental: as §1, §2, §3, §4

human αvβ1, sequence (P06756 31-992): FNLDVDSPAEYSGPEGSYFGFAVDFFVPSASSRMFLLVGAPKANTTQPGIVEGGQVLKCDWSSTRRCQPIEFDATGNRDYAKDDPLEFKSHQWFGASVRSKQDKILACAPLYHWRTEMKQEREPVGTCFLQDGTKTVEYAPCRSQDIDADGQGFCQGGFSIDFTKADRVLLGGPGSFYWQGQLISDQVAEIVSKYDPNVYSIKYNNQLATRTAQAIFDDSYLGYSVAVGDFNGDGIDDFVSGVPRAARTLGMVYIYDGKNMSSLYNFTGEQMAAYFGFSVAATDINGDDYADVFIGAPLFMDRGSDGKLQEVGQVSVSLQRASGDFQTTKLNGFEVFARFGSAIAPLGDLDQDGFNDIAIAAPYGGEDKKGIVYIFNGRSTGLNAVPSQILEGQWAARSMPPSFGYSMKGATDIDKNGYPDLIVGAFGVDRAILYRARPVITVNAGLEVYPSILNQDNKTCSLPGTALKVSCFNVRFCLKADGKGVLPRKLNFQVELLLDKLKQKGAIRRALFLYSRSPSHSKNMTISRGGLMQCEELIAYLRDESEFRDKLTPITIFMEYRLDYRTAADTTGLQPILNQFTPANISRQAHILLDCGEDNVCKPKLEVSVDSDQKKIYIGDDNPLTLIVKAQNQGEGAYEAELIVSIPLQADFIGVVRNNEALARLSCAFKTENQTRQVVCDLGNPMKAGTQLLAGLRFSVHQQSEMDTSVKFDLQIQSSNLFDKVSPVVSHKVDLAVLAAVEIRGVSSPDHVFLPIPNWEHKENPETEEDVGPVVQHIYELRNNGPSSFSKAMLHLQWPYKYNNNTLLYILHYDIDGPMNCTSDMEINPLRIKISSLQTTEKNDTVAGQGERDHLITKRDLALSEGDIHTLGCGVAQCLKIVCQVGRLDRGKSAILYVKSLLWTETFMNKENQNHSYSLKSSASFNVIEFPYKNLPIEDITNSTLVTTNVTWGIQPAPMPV
human αvβ1, sequence (P05556 21-728): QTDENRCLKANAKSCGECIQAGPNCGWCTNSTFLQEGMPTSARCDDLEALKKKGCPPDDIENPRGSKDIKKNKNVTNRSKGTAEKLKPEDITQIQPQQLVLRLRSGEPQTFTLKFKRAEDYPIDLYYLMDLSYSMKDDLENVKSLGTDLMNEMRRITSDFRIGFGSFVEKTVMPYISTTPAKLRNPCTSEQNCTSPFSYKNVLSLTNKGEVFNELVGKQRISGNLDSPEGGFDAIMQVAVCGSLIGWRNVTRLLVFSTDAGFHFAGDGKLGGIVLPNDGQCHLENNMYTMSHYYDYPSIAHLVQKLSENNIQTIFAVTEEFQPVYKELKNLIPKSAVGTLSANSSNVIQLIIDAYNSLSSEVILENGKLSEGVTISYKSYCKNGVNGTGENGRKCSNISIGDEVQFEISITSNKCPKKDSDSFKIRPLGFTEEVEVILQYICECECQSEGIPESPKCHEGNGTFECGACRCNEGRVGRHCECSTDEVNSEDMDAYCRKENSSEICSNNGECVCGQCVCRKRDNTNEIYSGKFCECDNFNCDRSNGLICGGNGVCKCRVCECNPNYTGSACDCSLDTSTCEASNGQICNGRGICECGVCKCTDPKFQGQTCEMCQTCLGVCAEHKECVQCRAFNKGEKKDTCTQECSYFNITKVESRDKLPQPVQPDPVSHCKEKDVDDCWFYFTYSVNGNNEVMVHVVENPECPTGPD
human αvβ8, sequence (P06756 31-992): as the sequence (P06756 31-992) above
human αvβ8, sequence (P26012 43-684): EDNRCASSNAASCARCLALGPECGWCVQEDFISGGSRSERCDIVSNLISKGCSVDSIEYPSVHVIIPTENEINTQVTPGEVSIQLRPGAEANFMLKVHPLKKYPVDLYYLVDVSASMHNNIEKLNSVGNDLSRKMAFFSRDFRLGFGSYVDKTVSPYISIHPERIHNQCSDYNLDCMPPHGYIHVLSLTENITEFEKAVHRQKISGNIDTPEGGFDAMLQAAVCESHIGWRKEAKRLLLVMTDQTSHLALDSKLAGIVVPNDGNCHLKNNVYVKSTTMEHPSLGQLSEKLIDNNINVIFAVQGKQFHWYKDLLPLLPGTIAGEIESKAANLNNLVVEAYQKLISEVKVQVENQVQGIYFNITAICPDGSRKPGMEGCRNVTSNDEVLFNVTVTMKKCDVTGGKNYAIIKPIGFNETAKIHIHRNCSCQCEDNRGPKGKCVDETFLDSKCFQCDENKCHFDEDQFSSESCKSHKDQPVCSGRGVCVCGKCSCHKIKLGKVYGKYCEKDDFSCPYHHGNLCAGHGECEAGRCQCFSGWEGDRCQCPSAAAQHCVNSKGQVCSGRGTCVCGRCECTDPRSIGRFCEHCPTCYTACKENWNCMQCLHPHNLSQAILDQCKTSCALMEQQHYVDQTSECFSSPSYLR
T1 sequence (P43406 31-1044): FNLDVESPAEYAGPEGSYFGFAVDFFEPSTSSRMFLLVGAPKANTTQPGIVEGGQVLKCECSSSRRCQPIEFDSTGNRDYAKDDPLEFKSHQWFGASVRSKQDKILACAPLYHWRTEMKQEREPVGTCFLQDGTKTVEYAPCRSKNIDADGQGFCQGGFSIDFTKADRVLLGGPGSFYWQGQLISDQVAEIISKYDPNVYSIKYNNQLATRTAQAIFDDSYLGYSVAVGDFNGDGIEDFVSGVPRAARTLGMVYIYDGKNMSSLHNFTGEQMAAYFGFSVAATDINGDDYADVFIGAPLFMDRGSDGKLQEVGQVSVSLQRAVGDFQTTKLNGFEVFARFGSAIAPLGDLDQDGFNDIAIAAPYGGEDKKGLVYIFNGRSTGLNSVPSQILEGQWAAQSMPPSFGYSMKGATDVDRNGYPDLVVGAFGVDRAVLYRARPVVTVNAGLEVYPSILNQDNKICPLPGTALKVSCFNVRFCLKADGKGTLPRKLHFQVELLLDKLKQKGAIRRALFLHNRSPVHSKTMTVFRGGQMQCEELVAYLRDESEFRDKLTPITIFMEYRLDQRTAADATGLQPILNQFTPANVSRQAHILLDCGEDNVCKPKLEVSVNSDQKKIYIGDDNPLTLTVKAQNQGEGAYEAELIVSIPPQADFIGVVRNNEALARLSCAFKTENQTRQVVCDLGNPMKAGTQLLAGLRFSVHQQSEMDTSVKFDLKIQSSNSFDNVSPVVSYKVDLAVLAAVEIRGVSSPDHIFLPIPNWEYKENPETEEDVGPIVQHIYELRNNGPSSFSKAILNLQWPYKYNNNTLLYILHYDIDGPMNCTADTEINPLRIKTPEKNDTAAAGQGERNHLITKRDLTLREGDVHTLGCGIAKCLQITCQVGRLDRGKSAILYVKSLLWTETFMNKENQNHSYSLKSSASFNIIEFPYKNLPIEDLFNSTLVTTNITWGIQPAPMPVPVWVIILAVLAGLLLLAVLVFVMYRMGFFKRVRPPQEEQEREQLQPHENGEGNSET
T1 sequence (Q9Z0T9 22-787): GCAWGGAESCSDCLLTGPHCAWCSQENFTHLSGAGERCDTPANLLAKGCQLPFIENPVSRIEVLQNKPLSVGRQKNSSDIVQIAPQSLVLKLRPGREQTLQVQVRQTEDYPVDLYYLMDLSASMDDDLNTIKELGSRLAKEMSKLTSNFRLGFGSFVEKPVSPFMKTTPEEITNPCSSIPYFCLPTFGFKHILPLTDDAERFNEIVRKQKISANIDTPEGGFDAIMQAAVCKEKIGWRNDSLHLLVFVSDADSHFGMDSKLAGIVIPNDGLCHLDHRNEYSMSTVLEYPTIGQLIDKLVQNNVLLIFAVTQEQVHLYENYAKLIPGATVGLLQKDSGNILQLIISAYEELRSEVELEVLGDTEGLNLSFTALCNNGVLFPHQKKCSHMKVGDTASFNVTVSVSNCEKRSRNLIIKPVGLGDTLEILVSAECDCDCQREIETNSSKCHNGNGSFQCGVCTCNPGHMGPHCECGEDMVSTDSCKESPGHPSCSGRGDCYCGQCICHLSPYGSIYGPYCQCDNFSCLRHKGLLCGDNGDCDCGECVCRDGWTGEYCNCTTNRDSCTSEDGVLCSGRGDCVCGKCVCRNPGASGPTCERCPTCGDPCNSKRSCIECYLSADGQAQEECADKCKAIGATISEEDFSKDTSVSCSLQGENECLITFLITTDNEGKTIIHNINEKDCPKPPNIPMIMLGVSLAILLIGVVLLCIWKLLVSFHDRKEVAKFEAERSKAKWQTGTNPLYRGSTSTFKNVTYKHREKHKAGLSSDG

Mean plasma total drug concentration [1]: 3701 ng/mL and 3701 ± 902 ng/mL
Inhibition of latent TGFβ activation, mouse αvβ6 co-culture (mouse αvβ6): strong inhibitory effect
pIC50 (human αvβ1; Fig. 3D, assay optimisation, read-out: IC50 human αvβ1 AlphaLISA): 9.34
pIC50 (human αvβ1; Fig. 4B, read-out: IC50 Human integrin AlphaLISA assays: hαvβ1): 9.00
pIC50 (human αvβ8; Fig. 3D, assay optimisation, read-out: IC50 human αvβ8 AlphaLISA): 7.23
pIC50 (human αvβ8; Fig. 4B, read-out: IC50 Human integrin AlphaLISA assays: hαvβ8): 8.51
SMILES: COc1ccc(C(CC(=O)O)N2CCN(CCCc3ccc4c(n3)NCCC4)C2=O)cn1 (stereo not shown) [MK-0429]
Oral bioavailability [2]: good
